Patent US9371331B2, “Modulators of methyl modifying enzymes, compositions and uses thereof” (Constellation Pharmaceuticals, Inc., priority 2012, dated 2016)
Read-outs that look alike come from different tables or passages of the source.

Legend:
[1] = tested on: H3K27me3 mark in HeLa cells; assay: H3K27me3 MSD Hela Assay; assay type: cell-based; conditions: read-out: H3K27me3_MSD_HeLa_ (EC50)
Protocol: Trypsinized HeLa cells were counted and diluted in 10% DMEM (Life Technologies, Cat. #10569) to 5000 cells/75 μL. Seventy-five […] of cells were place in each well of a 96-well flat-bottomed plate and incubated at 37° C. for 4 hours. Twenty-five μL of test compound (at various concentrations) was added to the cells and incubation continued at 37° C. for 96 hours. Media was then removed and the cells rinsed once with ice cold PBS. Forty μL of ice-cold MSD Buffer AT (10 mM HEPES, pH 7.9, 5 mM MgCl2, 0.25M sucrose, Benzonase (1:10000), 1% Triton X-100 supplemented with fresh 1× Protease Inhibitor cocktail and 1 mM 4-(2-Aminoethyl)benzenesulfonyl fluoride hydrochloride (AEBSF)) was added to each well and the plates placed on ice for 30 minutes. Ten μL of 5M NaCl was then added to each well and incubation on ice continued for another 15 minutes. The material in each well was suspended pipetting up and down and then transferred to a new 96 well plate. The emptied wells were rinsed with 150 uL ice-cold 20 mM Tris pH 7.5, 1 mM EDTA, 1 mM EGTA, supplemented with fresh 1× Protease Inhibitor cocktail and 1 mM AEBSF (“NO salt NO detergent buffer) and transferred to the respective wells in the new plate. Three hundred μL of NO Salt NO detergent buffer was then added to each well of lysates and the plates frozen at −80° C.
On the same day, an appropriate number of MSD standard bind 96-well plates were coated with 30 μL/well of total H3 capture antibody (Millipore. Cat #MAB3422) at 1 μg/mL concentration in PBS. The antibody solution was evenly distributed first by tapping gently on the sides of the plates and then by shaking the plates for a few minutes at 1000 rpm. Antibody coated plates were stored at 4° C. overnight.
The next day the lysates are thawed to RT. The antibody coated MSD plates are washed 3× with TBS-T (Tris-buffered saline (Fisher Scientific, Cat #BP2471-1)+0.2% Tween-20). One-hundred fifty μL of 5% Blocker A in TBS-T is added to each well. The wells are covered and shaken on a shaker at RT for one hour. The Blocker A step is repeated a second time. After removing the blocker, 25 μL of cell lysate is transferred into each antibody coated well. The plates are shaken for 2 hours at RT, the lysate removed and the plates again washed with Blocker A in TBS-T. Twenty-five μL of appropriate freshly prepared antibody mix (including both primary and secondary antibodies) is added to each well and the plates shaken for 1 hour at RT.
Both H3 antibodies were obtained from Cell Signalling (Cat #s 4499 and 9733). The goat anti-rabbit antibody was obtained from Meso-Scale Discovery (Cat #R32AB-1).
The antibody mix was then removed and the wells washed with Blocker A. One hundred-fifty μL of freshly prepared 1×MSD Read Buffer (Meso-Scale Discovery; Cat #R927C-2) was then added to each well and the plates read on a MSD Sector 2400 Plate Reader.
Data was analyzed using Assay Assistant (Constellation Pharmaceuticals In-house product) and Activity Base (IDBS Ltd, Surrey, UK) template. Data files were imported to Assay Assistant and assay conditions were specified. A unique Analysis ID was created and the data files exported to Activity Base. An analysis template was created on Activity Base to measure dose-dependent inhibition of H3K27me3 mark and cell viability respectively. Readout of DMSO wells were used to normalize the data. Resulting curves were fitted using Activity base software Model 205 (IDBS Ltd. Surrey, UK). The data was checked for quality, validated and integrated in excel format using SARview (IDBS Ltd, Surrey, UK).

Y641N EZH2 = Y641N EZH2 (Homo sapiens, UniProt Q15910, Y641N); assay: Y641N EZH2 assay: as EZH2 assay, with reconstituted H3K27Me2 oligonucleosomes as substrate; assay type: biochemical
Chain of Y641N EZH2 (Q15910 whole entry Y641N): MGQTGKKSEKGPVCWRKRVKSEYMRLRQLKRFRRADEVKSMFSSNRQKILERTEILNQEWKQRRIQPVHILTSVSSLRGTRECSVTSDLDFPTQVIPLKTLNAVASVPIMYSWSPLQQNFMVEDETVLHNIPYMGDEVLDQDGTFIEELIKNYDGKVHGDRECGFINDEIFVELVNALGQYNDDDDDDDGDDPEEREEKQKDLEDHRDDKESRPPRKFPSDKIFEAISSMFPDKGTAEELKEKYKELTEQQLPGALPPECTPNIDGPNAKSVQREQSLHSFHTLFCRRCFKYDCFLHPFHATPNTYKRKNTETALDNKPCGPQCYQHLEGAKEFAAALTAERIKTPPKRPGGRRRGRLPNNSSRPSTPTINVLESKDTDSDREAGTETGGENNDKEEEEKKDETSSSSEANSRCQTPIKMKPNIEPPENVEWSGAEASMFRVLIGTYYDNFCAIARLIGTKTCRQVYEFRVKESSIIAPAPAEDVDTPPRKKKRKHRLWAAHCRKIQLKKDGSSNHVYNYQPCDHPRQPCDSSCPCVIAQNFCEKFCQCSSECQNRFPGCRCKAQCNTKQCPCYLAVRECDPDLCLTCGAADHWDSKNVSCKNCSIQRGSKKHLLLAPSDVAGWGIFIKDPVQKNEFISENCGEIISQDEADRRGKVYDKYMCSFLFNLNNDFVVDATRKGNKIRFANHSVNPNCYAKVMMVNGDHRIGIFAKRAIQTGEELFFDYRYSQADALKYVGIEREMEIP
Chain of Y641N EZH2 (O75530 whole entry partner): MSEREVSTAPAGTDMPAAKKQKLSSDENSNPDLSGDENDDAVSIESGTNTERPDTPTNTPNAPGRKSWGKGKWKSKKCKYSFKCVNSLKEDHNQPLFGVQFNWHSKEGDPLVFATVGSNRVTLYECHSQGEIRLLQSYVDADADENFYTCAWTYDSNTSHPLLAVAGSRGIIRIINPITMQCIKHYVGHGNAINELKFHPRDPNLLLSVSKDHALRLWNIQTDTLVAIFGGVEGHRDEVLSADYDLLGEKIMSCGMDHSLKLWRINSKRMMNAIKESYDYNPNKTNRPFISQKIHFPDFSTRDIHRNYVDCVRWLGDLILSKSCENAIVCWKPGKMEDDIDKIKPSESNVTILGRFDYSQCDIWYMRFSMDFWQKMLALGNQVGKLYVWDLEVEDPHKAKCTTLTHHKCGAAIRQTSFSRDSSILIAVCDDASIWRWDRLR
Chain of Y641N EZH2 (Q15022 whole entry partner): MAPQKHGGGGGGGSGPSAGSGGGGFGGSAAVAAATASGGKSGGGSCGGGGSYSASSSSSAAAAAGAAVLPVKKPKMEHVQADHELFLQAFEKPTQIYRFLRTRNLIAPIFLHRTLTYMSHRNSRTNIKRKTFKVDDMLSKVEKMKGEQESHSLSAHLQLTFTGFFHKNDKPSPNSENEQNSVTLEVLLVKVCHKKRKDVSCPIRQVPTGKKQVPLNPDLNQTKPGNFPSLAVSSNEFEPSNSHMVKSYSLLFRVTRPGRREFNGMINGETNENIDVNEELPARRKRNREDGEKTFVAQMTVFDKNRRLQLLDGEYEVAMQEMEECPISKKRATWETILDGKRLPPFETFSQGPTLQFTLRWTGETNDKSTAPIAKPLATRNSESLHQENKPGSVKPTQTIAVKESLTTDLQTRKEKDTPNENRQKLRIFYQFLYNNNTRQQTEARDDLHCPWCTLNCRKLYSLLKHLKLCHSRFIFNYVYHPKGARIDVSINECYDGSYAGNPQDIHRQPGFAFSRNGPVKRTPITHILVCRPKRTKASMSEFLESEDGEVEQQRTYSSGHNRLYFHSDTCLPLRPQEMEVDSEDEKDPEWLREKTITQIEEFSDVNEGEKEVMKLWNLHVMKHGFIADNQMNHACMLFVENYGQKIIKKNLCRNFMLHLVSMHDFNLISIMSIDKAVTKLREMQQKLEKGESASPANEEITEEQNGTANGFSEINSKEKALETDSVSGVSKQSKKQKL

EZH2 (rPRC2) = EZH2 (rPRC2) (Homo sapiens, UniProt Q15910); assay: EZH2 assay: rPRC2, biotinylated oligonucleosomes, 3H SAM methyl transfer (FlashPlate scintillation); assay type: biochemical; conditions: biotinylated oligonucleosome substrate
Chain of EZH2 (rPRC2) (Q15910 whole entry): as the sequence (Q15910 whole entry Y641N) above, with N641Y counted along it
Chain of EZH2 (rPRC2) (O75530 whole entry partner): as the sequence (O75530 whole entry partner) above
Chain of EZH2 (rPRC2) (Q15022 whole entry partner): as the sequence (Q15022 whole entry partner) above

[2] = Y641N mutant EZH2, H3K27Me2 oligonucleosome substrate, read-out: Y641N EZH2 IC50
[3] = wild-type EZH2 (rPRC2), read-out: EZH2 IC50
[4] = Y641N EZH2 IC50, Y641N mutant EZH2, H3K27Me2 oligonucleosome substrate
[5] = EZH2 IC50, wild-type EZH2 (rPRC2)

Compound | IC50 (Y641N EZH2; [4]) [nM] | IC50 (EZH2 (rPRC2); [5]) [nM] | also measured
Cc1cc(C)c(CNC(=O)c2c(C)n(C(C)c3ccccc3)c3ccccc23)c(O)n1 (single isomer, unassigned) [Compound 137, (R or S)—N-((2-hydroxy-4,6-dimethylpyridin-3-yl)methyl) 2-methyl-1-1-phenylethyl) 1H-indole-3-carboxamide] |  |  | EC50 ([1]; HeLa cells, MSD, 96 hours): 400 to 2000 nM
CCC(C)n1c(C)c(C(=O)NCc2c(C)cc(C)nc2O)c2ccccc21 (single isomer, unassigned) [Compound 147, (R or S)-1-sec-butyl-N-((2-hydroxy-4,6-dimethylpyridin-3-yl)methyl)-2-methyl-1H-indole-3-carboxamide] |  |  | EC50 ([1]; Homo sapiens, HeLa, 96 h): 400 to 2000 nM
COCC(C)n1c(C)c(C(=O)NCc2c(C)cc(C)[nH]c2=O)c2ccccc21 (single isomer, unassigned; peak 2) [Compound 218, (R or S)-N-((4,6-dimethyl-2-oxo-1,2-dihydropyridin-3-yl)methyl)-1-(1-methoxypropan-2-yl)-2-methyl-1H-indole-3-carboxamide-PEAK 2] |  |  | EC50 ([1]; Homo sapiens, HeLa, 96 h): < 400 nM
COc1cc(C)[nH]c(=O)c1CNC(=O)c1c(C)n(C(C)C(OC)c2ccccc2)c2ncccc12 (stereo not shown) [Compound 265, 1-(1-methoxy-1-phenylpropan-2-yl)-N-((4-methoxy-6-methyl-2-oxo-1,2-dihydropyridin-3-yl)methyl)-2-methyl-1H-pyrrolo[2,3-b]pyridine-3-carboxamide] |  |  | IC50 (Y641N EZH2; [2]): 100 to 1000 nM; IC50 (EZH2 (rPRC2); [3]): < 100 nM
Cc1cc(C)c(CNC(=O)c2c(C)n(C(C)C(C)(C)O)c3ncccc23)c(=O)[nH]1 (stereo not shown) [Compound 271, N-((4,6-dimethyl-2-oxo-1,2-dihydropyridin-3-yl)methyl)-1-(3-hydroxy-3-methylbutan-2-yl)-2-methyl-1H-pyrrolo[2,3-b]pyridine-3-carboxamide] | 1000 to 10000 | 1000 to 10000 | 
COc1cc(C)[nH]c(=O)c1CNC(=O)c1c(C)n([C@@H](C)c2ccccc2)c2ncccc12 [Compound 276, (S)-N-((4-methoxy-6-methyl-2-oxo-1,2-dihydropyridin-3-yl)methyl)-2-methyl-1-(1-phenylethyl)-1H-pyrrolo[2,3-b]pyridine-3-carboxamide] | < 100 | < 100 | 
COC[C@H](C)n1c(C)c(C(=O)NCc2c(OC)cc(C)[nH]c2=O)c2cncnc21 [Compound 287, (S)-N-((4-methoxy-6-methyl-2-oxo-1,2-dihydropyridin-3-yl)methyl)-7-(1-methoxypropan-2-yl)-6-methyl-7H-pyrrolo[2,3-d]pyrimidine-5-carboxamide] | 1000 to 10000 | 100 to 1000 | 
CCC(OC)C(C)n1c(C)c(C(=O)NCc2c(OC)cc(C)[nH]c2=O)c2cccnc21 (stereo not shown) [Compound 293, N-((4-methoxy-6-methyl-2-oxo-1,2-dihydropyridin-3-yl)methyl)-1-(3-methoxypentan-2-yl)-2-methyl-1H-pyrrolo [2,3-b] pyridine-3-carboxamide] | 100 to 1000 | < 100 | 
COc1cc(C)[nH]c(=O)c1CNC(=O)c1c(C)n(C(C)CC(N)=O)c2ncccc12 (stereo not shown) [Compound 296, 1-(4-amino-4-oxobutan-2-yl)-N-((4-methoxy-6-methyl-2-oxo-1,2-dihydropyridin-3-yl)methyl)-2-methyl-1H-pyrrolo[2,3-b]pyridine-3-carboxamide] |  |  | IC50 (Y641N EZH2; [2]): 1000 to 10000 nM; IC50 (EZH2 (rPRC2); [3]): 100 to 1000 nM
CCC(OC)C(C)n1c(C)c(C(=O)NCc2c(OC)cc(C)[nH]c2=O)c2ccccc21 (stereo not shown) [Compound 299, N-((4-methoxy-6-methyl-2-oxo-1,2-dihydropyridin-3-yl)methyl)-1-(3-methoxypentan-2-yl)-2-methyl-1H-indole-3-carboxamide] | < 100 | < 100 | 
COc1cc(C)[nH]c(=O)c1CNC(=O)c1c(C)n(C(C)C(OC)C(F)(F)F)c2ncccc12 (stereo not shown) [Compound 312, N-((4-methoxy-6-methyl-2-oxo-1,2-dihydropyridin-3-yl)methyl)-2-methyl-1-(4,4,4-trifluoro-3-methoxybutan-2-yl)-1H-pyrrolo [2,3-b] pyridine-3-carboxamide] | 100 to 1000 | 100 to 1000 | 
COC(C)C(C)n1c(C)c(C(=O)NCc2c(C)cc(C)[nH]c2=O)c2ccc(S(C)(=O)=O)cc21 (stereo not shown) [Compound 322, N-((4,6-dimethyl-2-oxo-1,2-dihydropyridin-3-yl)methyl)-1-(3-methoxybutan-2-yl)-2-methyl-6-(methylsulfonyl)-1H-indole-3-carboxamide] | 100 to 1000 | 100 to 1000 | 
COc1cc(C)[nH]c(=O)c1CNC(=O)c1c(C)n(C(C)C(C)OC)c2cc(S(C)(=O)=O)ccc12 (stereo not shown) [Compound 323, N-((4-methoxy-6-methyl-2-oxo-1,2-dihydropyridin-3-yl)methyl)-1-(3-methoxybutan-2-yl)-2-methyl-6-(methylsulfonyl)-1H-indole-3-carboxamide] | 100 to 1000 | < 100 | 
COc1cc(C)[nH]c(=O)c1CNC(=O)c1c(C)n(C(=O)CC(C)C)c2ccccc12 [Compound 329, N-((4-methoxy-6-methyl-2-oxo-1,2-dihydropyridin-3-yl)methyl)-2-methyl-1-(3-methylbutanoyl)-1H-indole-3-carboxamide] |  |  | IC50 (Y641N EZH2; [2]): 100 to 1000 nM; IC50 (EZH2 (rPRC2); [3]): 100 to 1000 nM
COc1cc(C)[nH]c(=O)c1CNC(=O)c1c(C)n(C2CCN(C(=O)OC(C)(C)C)CC2)c2ccccc12 [Compound 331, tert-butyl 4-(3-(((4-methoxy-6-methyl-2-oxo-1,2-dihydropyridin-3-yl)methyl)carbamoyl)-2-methyl-1H-indol-1-yl)piperidine-1-carboxylate] | 100 to 1000 | < 100 | 
COc1cc(C)[nH]c(=O)c1CNC(=O)c1c(C)n(C(C)C2COCCO2)c2ccccc12 (stereo not shown) [Compound 348, 1-(1-(1,4-dioxan-2-yl)ethyl)-N-((4-methoxy-6-methyl-2-oxo-1,2-dihydropyridin-3-yl)methyl)-2-methyl-1H-indole-3-carboxamide] | < 100 | < 100 | 
COc1cc(C)[nH]c(=O)c1CNC(=O)c1c(C)n(C(C)C(C)S(C)(=O)=O)c2ccccc12 (stereo not shown) [Compound 350, N-((4-methoxy-6-methyl-2-oxo-1,2-dihydropyridin-3-yl)methyl)-2-methyl-1-(3-(methylsulfonyl)butan-2-yl)-1H-indole-3-carboxamide] | < 100 | < 100 | 
COc1cc(C)[nH]c(=O)c1CNC(=O)c1c(C)n(C(C)[C@H]2CNCCO2)c2ncncc12 (stereo partly drawn) [Compound 351, N-((4-methoxy-6-methyl-2-oxo-1,2-dihydropyridin-3-yl)methyl)-6-methyl-7-(1-((R)-morpholin-2-yl)ethyl)-7H-pyrrolo[2,3-d]pyrimidine-5-carboxamide] | 100 to 1000 | < 100 | 
COc1cc(C)[nH]c(=O)c1CNC(=O)c1c(C)n(C(=O)C2CCOCC2)c2ccccc12 [Compound 372, N-((4-methoxy-6-methyl-2-oxo-1,2-dihydropyridin-3-yl)methyl)-2-methyl-1-(tetrahydro-2H-pyran-4-carbonyl)-1H-indole-3-carboxamide] |  |  | Y641N EZH2 IC50 (Y641N EZH2; Y641N mutant EZH2, H3K27Me2 oligonucleosome substrate): *(0.5 uM); IC50 (EZH2 (rPRC2); [3]): 100 to 1000 nM
(±)-N-((6-(hydroxymethyl)-4-methoxy-2-oxo-1,2-dihydropyridin-3-yl)methyl)-1-(1-methoxypropan-2-yl)-2-methyl-1H-pyrrolo[2,3-b]pyridine-3-carboxamide [Compound 262] |  |  | IC50 (Y641N EZH2; [2]): 1000 to 10000 nM; IC50 (EZH2 (rPRC2); [3]): 100 to 1000 nM
